Laboratory results: article PMC7470138, “Novel heterocyclic hybrids of pyrazole targeting dihydrofolate reductase: design, biological evaluation and in silico studies” (Journal of Enzyme Inhibition and Medicinal Chemistry, 2020)
Converted amounts (≈) assume the structure as drawn.

Key:
[1] = system: P. aeruginosa RCMB 010043; test: Minimum inhibitory concentration (MIC), antibacterial; assay type: cell-based; settings: Pseudomonas aeruginosa, RCMB010043; P. aeruginosa RCMB 010043, Gram-negative; mean of three values; read-out: MIC (Mean ± SEM)
Method: (§1) Solutions of concentrations (1 µg/mL) of the target compounds were used. […] The diameter of inhibition zone (mm) was measured for the biologically activity using the diffusion technique[35]. […] The different concentrations (triplicate) of each compound were tested and compared with standard drugs.

B. subtilis RCMB 010067 = test: as above; assay type: cell-based; settings: Bacillus subtilis, RCMB010067; B. subtilis RCMB 010067, Gram-positive; mean of three values; read-out: MIC (Mean ± SEM)
Method: as §1

E. coli RCMB 010052 = test: as above; assay type: cell-based; settings: Escherichia coli, RCMB010052; E. coli RCMB 010052, Gram-negative; mean of three values; read-out: MIC (Mean ± SEM)
Method: as §1

S. pneumonia RCMB 010010 = test: as above; assay type: cell-based, Streptococcus pneumoniae; settings: S. pneumonia RCMB 010010, Gram-positive, mean of three values; for MIC: Streptococcus pneumoniae, RCMB010010, read-out: MIC (Mean ± SEM)
Method: as §1

[2] = system: all tested strains (S. pneumoniae, B. subtilis, P. aeruginosa, E. coli, A. fumigates, C. albicans); test: Antimicrobial sensitivity assay, agar well diffusion (inhibition zone); assay type: cell-based; settings: tested bacteria and fungi
Method: as §1
The screening was done for the in vitro antibacterial activity against Gram-positive Streptococcus pneumoniae and Bacillus subtilis, and Gram-negative Pseudomonas aeruginosa and Escherichia coli, and for the in vitro antifungal activity against Aspergillus fumigates and Candida albicans.

C. albicans RCMB 005036 = test: Minimum inhibitory concentration (MIC), antifungal; assay type: cell-based; settings: Candida albicans, RCMB005036; C. albicans RCMB 005036, fungi; mean of three values; read-out: MIC (Mean ± SEM)
Method: Solutions of concentrations (1 µg/mL) of the target compounds were used. […] The different concentrations (triplicate) of each compound were tested and compared with standard drugs.

A. fumigatus RCMB 002568 = test: Minimum inhibitory concentration (MIC), antifungal; assay type: cell-based, Aspergillus fumigates; settings: A. fumigatus RCMB 002568, fungi, mean of three values; for MIC: Aspergillus fumigatus, RCMB002568, read-out: MIC (Mean ± SEM)
Method: as §1

[3] = target: T1, dihydrofolate reductase (DHFR) (Homo sapiens, UniProt P00374); test: In vitro enzyme assay on dihydrofolate reductase (DHFR); assay type: biochemical; settings: absorbance at 340 nm, 22 °C, mean of three values, read-out: IC50 (Mean ± SEM) DHFR
T1 sequence (P00374 1-187): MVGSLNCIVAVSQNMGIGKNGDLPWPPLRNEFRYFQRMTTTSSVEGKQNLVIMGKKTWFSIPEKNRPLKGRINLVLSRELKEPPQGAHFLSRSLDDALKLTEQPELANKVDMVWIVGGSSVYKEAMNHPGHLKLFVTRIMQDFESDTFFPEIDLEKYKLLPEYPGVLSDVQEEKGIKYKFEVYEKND

| Compound | MIC [1] [µg/mL] | MIC (B. subtilis RCMB 010067) [µg/mL] | MIC (E. coli RCMB 010052) [µg/mL] | MIC (Mean ± SEM) (S. pneumonia RCMB 010010) [µg/mL] | MIC (S. pneumonia RCMB 010010) [µg/mL] | melting point [°C] | antimicrobial activity (in words) [2] | MIC (C. albicans RCMB 005036) [µg/mL] | MIC (A. fumigatus RCMB 002568) [µg/mL] | IC50 [3] [µM] | MIC (Mean ± SEM) (A. fumigatus RCMB 002568) [µg/mL] |
| --- | --- | --- | --- | --- | --- | --- | --- | --- | --- | --- | --- |
| O=C(O)c1cn(C2CC2)c2cc(N3CCNCC3)c(F)cc2c1=O [Ciprofloxacin, reference compound] | 0.5 ± 0.05 (≈ 1.51 µM) | 0.1 ± 0.3 (≈ 0.302 µM) | 0.01 ± 0.1 (≈ 0.0302 µM) | 0.98 (≈ 2.96 µM) | 0.98 ± 0.2 (≈ 2.96 µM) |  |  |  |  |  |  |
| Cc1nnc2c(C#N)c(N)n(-c3cccc4ccccc34)nc1-2 [Compound 6c, 6-Amino-3-methyl-5-(naphthalen-1-yl)-5H-pyrazolo[4,3-c]pyridazine-7-carbonitrile] |  |  |  |  |  | 288 to 290 | either inactive or less active |  |  |  |  |
| Cc1nnc2n(-c3ccccc3)c(=S)n(-c3cccc4ccccc34)nc1-2 [Compound 8b, 7-Methyl-2-(naphthalen-1-yl)-4-phenyl-2,4-dihydro-3H-pyrazolo[3,4-e][1,2,4]triazine-3-thione] |  |  |  |  |  | 257 to 259 | either inactive or less active |  |  |  |  |
| CC1=NNC(=O)C1=NNc1cccc2ccccc12 [Compound 3b, 5-Methyl-4–(2-(naphthalene-1-yl)hydrazineylidene)-2,4-dihydro-3H-pyrazol-3-one] | 125 ± 0.3 (≈ 495 µM) | 15.6 ± 0.5 (≈ 62 µM) | 250 ± 0.5 (≈ 991 µM) |  | 7.81 ± 0.1 (≈ 31 µM) | 189 to 191 |  | 62.5 ± 0.1 (≈ 248 µM) | 125 ± 0.2 (≈ 495 µM) | 18.3 ± 0.81 |  |
| Cc1nnc2c(C#N)c(N)n(-c3ccc(S(N)(=O)=O)cc3)nc1-2 [Compound 6a, 4-(6-Amino-7-cyano-3-methyl-5H-pyrazolo[4,3-c]pyridazin-5-yl)benzenesulphonamide] | 3.9 ± 0.1 (≈ 11.8 µM) | 0.49 ± 0.2 (≈ 1.49 µM) | 0.49 ± 0.4 (≈ 1.49 µM) |  | 0.98 ± 0.1 (≈ 2.98 µM) |  | highly active | 3.9 ± 0.03 (≈ 11.8 µM) | 0.98 ± 0.2 (≈ 2.98 µM) |  |  |
| Cc1n[nH]c2c(C#N)c(=O)n(-c3ccc(S(N)(=O)=O)cc3)nc12 [Compound 6b, 4-(7-Cyano-3-methyl-6-oxo-1,6-dihydro-5H-pyrazolo[4,3-c]pyridazin-5-yl)benzenesulphonamide] | 62.5 ± 0.3 (≈ 189 µM) | 0.98 ± 0.1 (≈ 2.97 µM) | 0.98 ± 0.1 (≈ 2.97 µM) | 1.95 (≈ 5.9 µM) | 1.95 ± 0.4 (≈ 5.9 µM) |  | highly active | 7.81 ± 0.05 (≈ 23.6 µM) | 1.95 ± 0.3 (≈ 5.9 µM) | 5.24 ± 0.37 | 1.95 (≈ 5.9 µM) |
| Cc1nnc2n(-c3ccccc3)c(=S)n(-c3ccc(S(N)(=O)=O)cc3)nc1-2 [Compound 8a, 4-(7-Methyl-4-phenyl-3-thioxo-3,4-dihydro-2H-pyrazolo[3,4-e][1,2,4]triazin-2-yl)benzenesulphonamide] | 125 ± 0.3 (≈ 314 µM) | 125 ± 0.4 (≈ 314 µM) | 62.5 ± 0.3 (≈ 157 µM) |  | 15.6 ± 0.5 (≈ 39.2 µM) | 275 to 277 | highly active | 62.5 ± 0.5 (≈ 157 µM) | 3.9 ± 0.1 (≈ 9.79 µM) | 1.36 ± 0.12 |  |
| C[C@@H]1[C@H](O)[C@@H](C)/C=C/C=C/C=C/C=C/C=C/C=C/C=C/[C@H](O[C@@H]2O[C@H](C)[C@@H](O)[C@H](N)[C@@H]2O)C[C@@H]2O[C@](O)(C[C@@H](O)C[C@@H](O)[C@H](O)CC[C@@H](O)C[C@@H](O)CC(=O)O[C@H]1C)C[C@H](O)[C@H]2C(=O)O [Amphotericin B, reference compound] |  |  |  |  |  |  |  | 3.9 ± 0.1 (≈ 4.22 µM) | 1.95 ± 0.3 (≈ 2.11 µM) |  | 1.95 (≈ 2.11 µM) |
| Cc1n[nH]c2nn(-c3cccc4ccccc34)nc12 [Compound 9b, 6-Methyl-2-(naphthalen-1-yl)-2,4-dihydropyrazolo[3,4-d][1,2,3]triazole] |  |  |  |  |  | > 300 | either inactive or less active |  |  |  |  |
| CC1=NNC(=O)C1=NNc1ccc(S(N)(=O)=O)cc1 [Compound 3a, 4-(2-(3-Methyl-5-oxo-1,5-dihydro-4H-pyrazol-4-ylidene)hydrazineyl)benzenesulfonamide] | 7.81 ± 0.3 (≈ 27.8 µM) | 0.98 ± 0.1 (≈ 3.48 µM) | 0.98 ± 0.6 (≈ 3.48 µM) | 1.95 (≈ 6.93 µM) | 1.95 ± 0.3 (≈ 6.93 µM) |  |  | 3.9 ± 0.3 (≈ 13.9 µM) | 1.95 ± 0.1 (≈ 6.93 µM) |  | 1.95 (≈ 6.93 µM) |
| Cc1n[nH]c2c(C#N)c(=O)n(-c3cccc4ccccc34)nc12 [Compound 6d, 3-Methyl-5-(naphthalen-1-yl)-6-oxo-5,6-dihydro-1H-pyrazolo[4,3-c]pyridazine-7-carbonitrile] |  |  |  |  |  | 282 to 284 | either inactive or less active |  |  |  |  |
| Cc1n[nH]c2nn(-c3ccc(S(N)(=O)=O)cc3)nc12 [Compound 9a, 4-(6-Methylpyrazolo[3,4-d][1,2,3]triazol-2(4H)-yl)benzenesulphonamide] | 15.6 ± 0.5 (≈ 56.2 µM) | 1.95 ± 0.08 (≈ 7.01 µM) | 1.95 ± 0.3 (≈ 7.01 µM) |  | 3.9 ± 0.3 (≈ 14 µM) | > 300 | highly active | 7.81 ± 0.2 (≈ 28.1 µM) | 250 ± 0.2 (≈ 898 µM) | 1.45 ± 0.23 |  |
